Key:
[1] = Electrometric titration (pKa); format: physicochemical; settings: electrometric titration in 66% aqueous dimethylformamide; read-out: pKa value of titratable group
From the text: Electrometric titration of DOMM in 66% aqueous dimethylformamide indicates the presence of a titratable group with a pKa value of about 7.14.

[2] = Solubility; format: physicochemical; settings: water and most polar organic solvents (acetone, methanol, ethanol, chloroform, dimethylformamide, dimethyl sulfoxide)
From the text: DOMM acid addition salts are more soluble in water than is DOMM base.

With `CCC1OC(=O)CC(O)C(C)C(OC2OC(C)C(OC3CC(C)(O)C(O)C(C)O3)C(N(C)C)C2O)C(CC=O)CC(C)C(=O)C=CC(C)=CC1COC1OC(C)C(O)C(O)C1O` (centres unmarked) [DOMM, 2"'-O-demethylmacrocin] the pKa [1] was ~7.14 and the solubility [2] was “soluble in water and in most polar organic solvents”.

From patent EP0045157A1, “Macrolide antibiotics, their preparation and veterinary compositions containing them” (ELI LILLY AND COMPANY, priority 1980, dated 1982)
